Measurements reported in US9629848B2, “Compounds that modulate autoimmunity and methods of using the same” (The Regents of the University of Colorado, a body corporate, priority 2011, dated 2017).
Where two headings read alike, the source gives them in different places.

Legend:
[1] = test system: BDC 12-4.1 anti-B:9-23 T cell hybridoma; test: T cell stimulation assay, B:9-23 activated TCR BDC 12-4.1; type: cell-based; settings: Mus musculus, read-out: IC50 for anti-B:9-23 TCRs BDC 12-4.1
[2] = test system: BDC 8-1.1α1 anti-B:9-23 T cell hybridoma; test: T cell stimulation assay, B:9-23 activated TCR 8-1.1α1; type: cell-based; settings: Mus musculus, read-out: IC50 for anti-B:9-23 TCRs 8-1.1α1
[3] = test system: human T cell receptor recognizing insulin B:9-23 presented by human DQ8; test: Inhibition of human T cell receptor recognizing insulin B:9-23 presented by human DQ8; type: cell-based; settings: for Inhibition of human T cell receptor recognition of insulin B:9-23 presented by human DQ8: screen of DQ8 pocket 1 and pocket 9 compounds; for Concentration at which inhibition is exhibited: DQ8 pocket 1 and pocket 9 compounds studied in detail
Excerpt: Using a TCR sequence obtained from a T cell line generated from the peripheral blood of a diabetic individual with DQ8 molecule, a TCR was identified that is DQ8 restricted and responds to the insulin B:9-23 peptide.
Molecules predicted to occupy pockets 1 and 9 of the human DQ8 peptide binding groove were identified using in silico molecular docking program. The top scoring compounds for each pocket were screened for their ability to inhibit anti-B:9-23 T cell responses. FIGS. 9A and 9B represent the results of the T cell stimulation assay for compounds occupying pocket 1 and pocket 9 of the human DQ8 peptide binding groove, respectively.

[4] = test system: CD3-stimulated T cell hybridomas; test: CD3-stimulated T cell hybridomas (specificity control); type: cell-based
Excerpt: The small molecules p1:4, p1:12 and p1:16 were studied in additional detail.

BDC 2.5 T cell hybridoma = test: Chromogranin peptide mimotope presentation by I-A^g^7 to BDC 2.5 T cell hybridoma; type: cell-based, mouse; settings: specificity test
DQ8 = DQ8 (Homo sapiens, UniProt P01909+P01920, A209T/A45G/C70Q/D89A/DUP78-78/E183D/E77G/F237L/G63E/H199R/I129T/K197E/L178F/L74F/L98V/Q57E/Q76R/S185I/S97I/T217I/T49S/V73L/Y58L); test: Competitive binding assay B:9-23 to DQ8
[5] = test system: 5KC cells transduced with a 4-8 TCR; test: Endogenous insulin presentation: whole insulin with I-A^g^7 splenocytes and 4-8 TCR transduced 5KC cells; type: cell-based, mouse; settings: whole insulin with I-A^g^7 containing splenocytes
Protocol: The ability of the small molecules to block endogenous insulin presentation was tested. Incubation of whole insulin with I-A^g^7 containing splenocytes activates 5KC cells (T cell hybridoma lacking endogenous TCRα and β chains) transduced with a 4-8 TCR. […] To document direct effects of these small molecules on inhibiting peptide binding to I-A^g^7, an I-A^g^7 protein construct was expressed in baculovirus with a linked peptide. The flexible linker contained a thrombin cleavage site, allowing for thrombin cleavage of the linker and release of the peptide.

Compound `Nc1nc(N)c2nn[nH]c2n1` has an IC50 ([1]; B:9-23 activated TCR) of 24 µM and an IC50 ([2]; B:9-23 activated TCR) of 25.5 µM.
In the case of `C1CN2CN1CN1CCN(C1)C2`, the IC50 ([1]; B:9-23 activated TCR) is reported as 2.8 µM and the IC50 ([2]; B:9-23 activated TCR) is reported as 48.8 µM.
Work on `NC1(N)Sc2nc3ccccc3nc2S1` yielded an IC50 ([1]; B:9-23 activated TCR) of 14.8 µM and an IC50 ([2]; B:9-23 activated TCR) of 70.4 µM.
`O=S1(=O)N2CN3CCN(C2)N1C3` gave an IC50 [1] of 0.5 µM and an IC50 [2] of 28.4 µM.
With “5-((2,5-dichloro-4-(hydroxy(oxido)amino)phenyl)diazenyl)-2-imino-4-methyl-2,3-dihydro-1,3-thiazole [p1:21]” the “Inhibition of human T cell receptor recognition of insulin B:9-23 presented by human DQ8” value (“Inhibition … by human DQ8” below) [3] was “able to inhibit”.
With `O=Nc1c(S(=O)(=O)O)cc2cc(S(=O)(=O)O)cc(O)c2c1O` [p1:4, 4,5-dihydroxy-3-nitroso-2,7-naphthalenedisulfonic acid] the “Response of CD3-stimulated T cell hybridomas” value (shortened to “Response”) [4] was “did not change response”, the “Concentration at which inhibition is exhibited” value [3] was “nanomolar” and the “Inhibition … by human DQ8” value [3] was “able to inhibit”.
In the case of `NC(=O)c1cc(Br)cc(C2CCCCC2)c1O` [p1:12, 5-bromo-3-cyclohexyl-2-hydroxybenzamide], the “Response” value [4] is reported as “did not change response”, the “Concentration at which inhibition is exhibited” value [3] is reported as “nanomolar” and the “Inhibition … by human DQ8” value [3] is reported as “able to inhibit”.
In the case of `O=C(O)COc1ccc(I)cc1I` [p1:16, (2,4-diiodophenoxy)acetic acid], the “Response” value [4] is reported as “did not change response”, the “Concentration at which inhibition is exhibited” value [3] is reported as “nanomolar” and the “Inhibition … by human DQ8” value [3] is reported as “able to inhibit”.
In the case of `COC(=O)COc1ccc(Cl)cc1C(=O)O` [p1:18, 5-chloro-2-(2-methoxy-2-oxoethoxy) benzoic acid], the “Inhibition … by human DQ8” value [3] is reported as “able to inhibit”.
In the case of `COc1ccc2c(n1)Sc1c(N)nc(N)nc1N2` [p1:22, 7-methoxy-10H-pyrido[2,3-b]pyrimido[4,5-e][1,4]thiazine-2,4-diamine], the “Inhibition … by human DQ8” value [3] is reported as “able to inhibit”.
In the case of `Nc1nc(O)c2nc(S)c(C(=O)O)nc2n1` [p1:25, 2-amino-4-hydroxy-6-mercapto-7-pteridine carboxylic acid], the “Inhibition … by human DQ8” value [3] is reported as “able to inhibit”.
`O=[PH](O)C(O)c1ccccc1` (stereo not drawn) [p6:17] was tested, and the “Inhibition of chromogranin presentation to the BDC 2.5 hybridoma” value (BDC 2.5 T cell hybridoma) was “no inhibition” and the IC50 (DQ8) was over 100 µM.
With `CN(C)C(Cl)(N(C)C)C(Cl)(N(C)C)N(C)C` [p6:18] the “IC50 for blocking T cell stimulation from endogenously processed insulin” value [5] was “low nanomolar” and the IC50 (DQ8) was over 100 µM.
With `O=P(O)(O)CCCP(=O)(O)O` [p9:1, 3-phosphonopropylphosphonic acid] the “Inhibition … by human DQ8” value [3] was “able to inhibit”.
For `O=C(O)COC1C=CC(=O)N(CC(=O)O)N1` (stereo not drawn) [p9:5, 3-(carboxymethoxy)-6-oxo-3,6-dihydro-1(2H)-pyridazinyl acetic acid], the “Concentration at which inhibition is exhibited” value [3] was “nanomolar” and the “Inhibition … by human DQ8” value [3] was “able to inhibit”.
In the case of `O=S(=O)(O)C(O)CC(O)S(=O)(=O)O` (stereo not drawn) [p9:10, 1,3-dihydroxy-1,3-propanedisulfonic acid], the “Inhibition … by human DQ8” value [3] is reported as “able to inhibit”.
For `O=C(O)C(S)CC(S)C(=O)O` (stereo not drawn) [p9:17, 3-deoxy-2,4-dithiopentaric acid], the “Inhibition … by human DQ8” value [3] was “able to inhibit”.
In the case of `O=S(=O)(O)CCc1nnn[nH]1` [p9:23, 2-(1H-tetraazol-5-yl)ethanesulfonic acid], the “Concentration at which inhibition is exhibited” value [3] is reported as “nanomolar” and the “Inhibition … by human DQ8” value [3] is reported as “able to inhibit”.
`CC=C1C(C(=O)O)C1C(=O)O` (stereo not drawn) [p9:35, 3-ethylidene-1,2-cyclopropanedicarboxylic acid] was tested, and the “Inhibition … by human DQ8” value [3] was “able to inhibit”.
